Data set [1] deals with 6β- and 12α-hydroxylation of testosterone. The data set can be described thus: testosterone hydroxylation (HPLC) in African clawed frog primary hepatocytes. It counts as cell-based, Xenopus laevis. The note with it: relative to vehicle control. The procedure:
Xenopus laevis primary hepatocytes were cultured by a protocol adapted from a published report. Frogs are sacrificed with MS-222, rinsed with 70% ethanol, and the liver lobes perfused via the heart, initially with 375 mL Barth (88 mM NaCl, 1 mM K2SO4, and 10 mM HEPES-NaOH, pH 7.4) containing 0.82 mM MgCl2 and 0.1 mg/mL heparin, and then with 25 mL Barth containing 2.22 mM Ca(NO3)2, 2.74 mM CaCl2, and 200 U/mL type I collagenase (Worthington Chemicals, Lakewood, NJ). Livers are minced to fine pieces in 12.5 mL Barth-collagenase solution and then incubated for 10 min at room temperature, periodically disaggregating the liver pieces with a Pasteur pipette. The liver cells are then placed on a shaking incubator for 5 min at room temperature, followed by another 10 min of periodic pipetting to complete disaggregation. Cells are then filtered through a 130 μm Nitex nylon mesh (Fisher Scientific), following by spinning at 500 g for 5 min at 4°C. The supernatant is then aspirated and diluted to 50 mL with Barth plus MgCl2 and then allowed to settle while cooled in ice for 30 min. The supernatant is removed, and the cellular pellet is resuspended and subjected to one more round of nylon mesh filtration, dilution in Barth plus MgCl2, and settling while cooled in ice. The supernatant is removed and the remaining cells are washed once with Barth plus MgCl2 and then centrifuged at 500 g for 5 min at 4°C. The cells are then resuspended in 0.6 × Coon's Modified Ham's F-12 medium (Invitrogen) supplemented with 0.1 × Barth (88 mM NaCl, 1 mM K2SO4, 10 mM HEPES), 200 U/mL penicillin G, 100 μg/mL streptomycin sulfate, 2 mM glutamine, 0.2% glucose, and 10 μg/mL bovine insulin (Calbiochem), with the final pH adjusted to 7.5. […] Cells are cultured at 20°C in ambient atmosphere.
Testosterone metabolites were identified and quantitated by HPLC. […] The supernatant was then injected into the HPLC.

The subject of another data set is PXR. The data set can be described thus: zebrafish in vivo liver transcription, semi-quantitative RT-PCR: PXR. How it is done:
Adult zebrafish were purchased from a commercial fish supplier and acclimatized for at least two-weeks in 20 L tanks with flow-through freshwater at 22°C. A single dose of 15 mg/kg of 5α-cyprinol, 5β-cyprinol 27-sulfate, 5α-scymnol or 5β-scymnol-27 sulfate, dissolved in saline, was injected intraperitoneally. A control group was injected with saline. After 48 hr, the animals were decapitated and livers of three fish (n = 5 each group) were removed, pooled and weighed, totalizing 15 fish per group. Fish were not fed throughout the experimental period. […].
To study the transcription of CYP3C1, ABCB5, PXR, GAPDH and β-actin genes in zebrafish, initial fragments of these genes were identified (Genbank: AW202769, Genbank: BQ284593, Genbank: AAM22215, Genbank: BC083506, Genbank: AF057040, respectively). The PCR primers for CYP3C1 were designed using MacVector Software and primers for MDR1 were designed using Primer 3 Software (Whitehead Institute for Biomedical Research; [75]). Primer pairs for amplifying CYP3C1 fragment were 5'-[…]-3' (sense) and 5'-[…]-3' (antisense) and for amplifying ABCB5 were 5'-[…]-3' (sense) and 5'-[…]-3' (antisense). The PCR primers for PXR were 5'-[…]-3' (sense) and 5'-[…]-3' (antisense), for amplifying GAPDH were 5'-[…]-3' (sense) and 5' […] 3' (antisense) and for β-actin were 5'-[…]-3' (sense) and 5'-[…]-3' (antisense). RNA was isolated using Trizol (Invitrogen) according to manufacturer's instructions. Purity and concentration of RNA of each sample were verified at 260 nm. The RNA integrity was checked by non-denaturing gel electrophoresis using 1 μg of total RNA in each sample.
Two micrograms of total RNA were reversed transcribed using Ominiscript RT Kit (Qiagen, Valencia, CA, USA). cDNA concentration was checked at 260 nm, and the amount adjusted to 1 μg to perform semi-quantitative RT-PCR. The expected size of the PXR, Cyp3C1, abcb5, GAPDH and β-actin fragments were 577, 477, 218, 234 and 550 bp, respectively. Biotools DNA polymerase (Biotools B&M Labs, S.A., Madrid, Spain) kit was used for the PCR reaction using a thermocycler Personal Mastercycler (Eppendörf) with the following PCR program: 5 cycles of 94°C for 5 s, 72°C for 35 s; 5 cycles of 94°C for 5 s, 70°C for 10 s, 72°C for 35 s; and 23, 24, 35, 15 and 24 cycles (PXR, Cyp3C1, abcb5, GAPDH and β-actin, respectively) of 94°C for 5 s, 61, 54, 48, 49 and 61°C for 10 s (PXR, Cyp3C1, abcb5, GAPDH and β-actin, respectively), and 72°C for 35 s. The PXR, CYP3C1, ABCB5 and GAPDH transcript levels were quantified using Gel-Quant™ (Multiplexed Biotechologies) and β-actin was used to normalize the data. The Shapiro-Wilk W test was used to evaluate normality. When data were parametric the analysis was performed using Student t test; otherwise Mann Whitney U test was applied. […]

A further data set has as its target T1, Mouse VDR (Mus musculus, UniProt P48281).
T1 sequence (P48281 1-422): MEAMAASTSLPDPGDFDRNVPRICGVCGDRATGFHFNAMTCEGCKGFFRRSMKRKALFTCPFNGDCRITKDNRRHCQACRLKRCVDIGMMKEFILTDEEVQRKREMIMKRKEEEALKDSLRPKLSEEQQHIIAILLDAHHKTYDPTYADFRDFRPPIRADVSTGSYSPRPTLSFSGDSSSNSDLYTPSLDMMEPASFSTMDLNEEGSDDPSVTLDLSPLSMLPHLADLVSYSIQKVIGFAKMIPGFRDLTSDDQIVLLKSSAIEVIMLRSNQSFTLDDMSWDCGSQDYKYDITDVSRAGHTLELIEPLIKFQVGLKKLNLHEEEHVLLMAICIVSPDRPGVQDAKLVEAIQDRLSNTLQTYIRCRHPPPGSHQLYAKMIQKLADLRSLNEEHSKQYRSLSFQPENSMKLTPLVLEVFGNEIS
The data set can be described thus: luciferase reporter transactivation assay in HepG2-NTCP cells, full-length mVDR with CYP3A4-PXRE-Luc. The note with it: HepG2-NTCP cells, luciferase reporter; unit not given; also cells saying No effect.

On to `C[C@H](CCCC(CO)CO)[C@H]1CC[C@H]2[C@@H]3[C@H](O)C[C@H]4C[C@H](O)CC[C@]4(C)[C@H]3C[C@H](O)[C@]12C` [5α-Cyprinol, 5α-cholestan-3α,7α,12α,26,27-pentol], for which the “effect on 6β- and 12α-hydroxylation of testosterone” value in data set [1] is listed as “neither activity was substantially increased relative to vehicle control”. The “liver transcription of PXR” value in the data set on PXR (ip, 15 mg/kg, 48 h) is listed as 0.58 ± 0.33 arbitrary units normalized to β-actin. At Mouse VDR, the “Mouse VDR EC50 ± SD” value is reported as “No effect”.

`C[C@H](CCCC(CO)COS(=O)(=O)O)[C@H]1CC[C@H]2[C@@H]3[C@H](O)C[C@H]4C[C@H](O)CC[C@]4(C)[C@H]3C[C@H](O)[C@]12C` (stereo partly drawn) [5α-Cyprinol 27-sulfate]: in data set [1], the “effect on 6β- and 12α-hydroxylation of testosterone” value is “neither activity was substantially increased relative to vehicle control”. For the same compound, in the data set on PXR (zebrafish, 15 mg/kg intraperitoneally, single dose, 48 hr), the “liver transcription of PXR” value is recorded as 1.50 ± 0.67 arbitrary units normalized to β-actin. Further, the “Mouse VDR EC50 ± SD” value on Mouse VDR was “No effect”.

Source of the values: PMC2263054, “Functional evolution of the vitamin D and pregnane X receptors” (BMC Evolutionary Biology, 2007).
